From ChEMBL document CHEMBL3871277, “Synthesis and anti-metastatic effects of pregn-17(20)-en-3-amine derivatives” (Eur J Med Chem, 2016)
The source made the active and inactive calls. The rule behind the calls is not given here.

Legend:
[1] = Antimigratory activity against EGF induced chemotaxis in human MDA-MB-231 cells preincubated for 24 hrs followed by EGF addition for 3.5 hrs by light microscopy; format: functional, cell-based
[2] = Antimigratory activity in human HepG2 cells at 4.5 uM after 24 hrs by wound healing assay; format: functional
[3] = Anti-invasive activity in human HepG2 cells at 4.5 uM after 24 hrs by MTT dye based boyden chamber assay; format: functional
[4] = test system: MDA-MB-231; assay: Antimigratory activity in human MDA-MB-231 cells assessed as decrease in cell adhesion at 0.25 uM after 24 hrs by MTT assay; format: functional, cell-based
[5] = Effect on PKCzeta protein expression in human MDA-MB-231 cells at 0.25 to 6.75 uM by Western blot analysis; format: ADME, cell-based; details: mda-mb-231, 6.75 µM
[6] = test system: MDA-MB-231; assay: Inhibition of PI3K-p85 in human MDA-MB-231 cells assessed as reduction in Akt phosphorylation by Western blot analysis; format: cell-based
[7] = test system: MDA-MB-231; assay: Antiinvasive activity in human MDA-MB-231 cells after 24 hrs by transwell migration assay; format: functional, cell-based
[8] = test system: MDA-MB-231; assay: Antimigratory activity in human MDA-MB-231 cells assessed as decrease in cell adhesion to fibronectin at 1 to 40 uM after 24 hrs by MTT assay; format: functional, cell-based
[9] = Effect on integrin-beta1 protein expression in human MDA-MB-231 cells at 5 to 45 uM by Western blot analysis; format: ADME, cell-based; details: mda-mb-231, 45 µM
[10] = molecular target: Integrin beta-1 (Homo sapiens) (UniProt P05556); assay: Inhibition of integrin-beta1 phosphorylation in human MDA-MB-231 cells by Western blot analysis; format: cell-based
Chain of Integrin beta-1 (Homo sapiens) (P05556 whole entry): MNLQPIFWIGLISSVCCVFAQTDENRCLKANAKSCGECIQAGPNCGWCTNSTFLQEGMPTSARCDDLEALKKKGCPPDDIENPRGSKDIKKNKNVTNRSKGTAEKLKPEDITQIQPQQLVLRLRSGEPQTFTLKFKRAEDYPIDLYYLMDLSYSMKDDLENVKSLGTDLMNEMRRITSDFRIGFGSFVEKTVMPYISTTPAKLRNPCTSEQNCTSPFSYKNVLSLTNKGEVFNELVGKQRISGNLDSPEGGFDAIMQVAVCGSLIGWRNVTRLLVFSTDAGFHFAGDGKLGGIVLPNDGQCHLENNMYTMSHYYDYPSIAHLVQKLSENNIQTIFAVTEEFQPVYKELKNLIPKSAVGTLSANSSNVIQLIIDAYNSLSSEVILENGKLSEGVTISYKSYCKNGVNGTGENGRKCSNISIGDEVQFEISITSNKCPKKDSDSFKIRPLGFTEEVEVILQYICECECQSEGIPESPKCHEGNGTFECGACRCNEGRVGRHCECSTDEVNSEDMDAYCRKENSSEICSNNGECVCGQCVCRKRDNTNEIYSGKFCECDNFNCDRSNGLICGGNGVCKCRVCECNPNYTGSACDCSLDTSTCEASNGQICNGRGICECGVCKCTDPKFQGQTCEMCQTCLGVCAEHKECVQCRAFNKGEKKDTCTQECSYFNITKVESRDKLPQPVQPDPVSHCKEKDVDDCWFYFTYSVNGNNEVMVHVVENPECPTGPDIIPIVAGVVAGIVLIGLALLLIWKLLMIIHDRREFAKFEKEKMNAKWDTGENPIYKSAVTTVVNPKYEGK

[11] = test system: MDA-MB-231; assay: Inhibition of PI3K-p85 phosphorylation in human MDA-MB-231 cells by Western blot analysis; format: cell-based
[12] = test system: MDA-MB-231; assay: Antimigratory activity in human MDA-MB-231 cells after 24 hrs by wound healing assay; format: functional, cell-based
[13] = test system: MDA-MB-231; assay: Inhibition of PI3K-p85 in human MDA-MB-231 cells assessed as reduction in PKCzeta phosphorylation by Western blot analysis; format: cell-based
[14] = Homo sapiens, MDA-MB-231, read-out: IC50

SMILES	IC50 [1, 14]	other results
C/C=C1/C(=O)C[C@H]2[C@@H]3CCC4C[C@H](N)CC[C@]4(C)[C@H]3CC[C@]12C (stereo partly specified)	0.3 µM	–
C/C=C1/CC[C@H]2[C@@H]3CCC4C[C@@H](N)CC[C@]4(C)[C@H]3CC[C@]12C (stereo partly specified)	0.09 µM	–
C[C@@H]1CC[C@@]2(NC1)O[C@H]1C[C@H]3[C@@H]4CC=C5C[C@@H](O[C@@H]6O[C@H](CO)[C@@H](O[C@@H]7O[C@@H](C)[C@H](O)[C@@H](O)[C@H]7O)[C@H](O)[C@H]6O[C@@H]6O[C@@H](C)[C@H](O)[C@@H](O)[C@H]6O)CC[C@]5(C)[C@H]4CC[C@]3(C)[C@H]1[C@@H]2C [SOLAMARGINE]	–	Activity [2]: 40%; Activity [3]: 40%
C/C=C1/[C@H](O)C[C@H]2[C@@H]3CCC4C[C@@H](N5CCCC5)CC[C@]4(C)[C@H]3CC[C@]12C (stereo partly specified)	–	IC50 ([1]; mda-mb-231): Nd(Toxic)
C/C=C1/[C@H](O)C[C@H]2[C@@H]3CCC4C[C@H](N)CC[C@]4(C)[C@H]3CC[C@]12C (stereo partly specified)	1.08 µM	–
C/C=C1/C(=O)C[C@H]2[C@@H]3CCC4C[C@H](N(C)C)CC[C@]4(C)[C@H]3CC[C@]12C (stereo partly specified)	7.37 µM	–
C/C=C1/C(=O)C[C@H]2[C@@H]3CCC4C[C@H](NCC)CC[C@]4(C)[C@H]3CC[C@]12C (stereo partly specified)	–	IC50 ([1]; mda-mb-231): Nd(Toxic)
C/C=C1/C(=O)C[C@H]2[C@@H]3CCC4C[C@@H](NCC)CC[C@]4(C)[C@H]3CC[C@]12C (stereo partly specified)	28.5 µM	–
C/C=C1/[C@H](O)C[C@H]2[C@@H]3CCC4C[C@H](NCc5ccc(C#N)cc5)CC[C@]4(C)[C@H]3CC[C@]12C (stereo partly specified)	–	IC50 ([1]; mda-mb-231): Nd(Toxic)
C/C=C1/CC[C@H]2[C@@H]3CCC4C[C@H](N)CC[C@]4(C)[C@H]3CC[C@]12C (stereo partly specified)	2.21 µM	–
C/C=C1/CC[C@H]2[C@@H]3CCC4C[C@@H](NC(=O)c5ccc(C#N)cc5)CC[C@]4(C)[C@H]3CC[C@]12C (stereo partly specified)	0.24 µM	–
C/C=C1/CC[C@H]2[C@@H]3CCC4C[C@H](N5CCCCC5)CC[C@]4(C)[C@H]3CC[C@]12C (stereo partly specified)	2.48 µM	–
CC=C1CC[C@H]2[C@@H]3CCC4C[C@@H](NC)CC[C@]4(C)[C@H]3CC[C@]12C (stereo partly specified)	1.21 µM	–
C/C=C1/[C@H](O)C[C@H]2[C@@H]3CCC4C[C@@H](N5CCCCC5)CC[C@]4(C)[C@H]3CC[C@]12C (stereo partly specified)	21.4 µM	–
C/C=C1/CC[C@H]2[C@@H]3CCC4C[C@H](NCC)CC[C@]4(C)[C@H]3CC[C@]12C (stereo partly specified)	20.2 µM	–
C/C=C1/C(=O)C[C@H]2[C@@H]3CCC4C[C@@H](NCc5ccc(C#N)cc5)CC[C@]4(C)[C@H]3CC[C@]12C (stereo partly specified)	0.84 µM	–
C/C=C1/[C@H](O)C[C@H]2[C@@H]3CCC4C[C@@H](NC)CC[C@]4(C)[C@H]3CC[C@]12C (stereo partly specified)	4.77 µM	–
C/C=C1/[C@H](O)C[C@H]2[C@@H]3CCC4C[C@H](N5CCCC5)CC[C@]4(C)[C@H]3CC[C@]12C (stereo partly specified)	0.26 µM	–
FC(F)c1nc2ccccc2n1-c1nc(N2CCOCC2)nc(N2CCOCC2)n1	–	Activity [4]: Active
C/C=C1/CC[C@H]2[C@@H]3CCC4C[C@H](N5CCCC5)CC[C@]4(C)[C@H]3CC[C@]12C (stereo partly specified)	24.2 µM	–
C/C=C1/C(=O)C[C@H]2[C@@H]3CCC4C[C@H](NCc5ccc(C#N)cc5)CC[C@]4(C)[C@H]3CC[C@]12C (stereo partly specified)	2.34 µM	–
C/C=C1/C(=O)C[C@H]2[C@@H]3CCC4C[C@@H](N)CC[C@]4(C)[C@H]3CC[C@]12C (stereo partly specified)	0.48 µM	–
C/C=C1/[C@H](O)C[C@H]2[C@@H]3CCC4C[C@@H](NCC)CC[C@]4(C)[C@H]3CC[C@]12C (stereo partly specified)	–	IC50 ([1]; mda-mb-231): Nd(Toxic)

SMILES	IC50 [1, 14]	other results
C/C=C1/CC[C@H]2[C@@H]3CCC4C[C@@H](NCC)CC[C@]4(C)[C@H]3CC[C@]12C (stereo partly specified)	0.17 µM	–
C/C=C1/C(=O)C[C@H]2[C@@H]3CCC4C[C@H](N5CCCC5)CC[C@]4(C)[C@H]3CC[C@]12C (stereo partly specified)	> 50 µM	–
C/C=C1/CC[C@H]2[C@@H]3CCC4C[C@@H](N5CCCCC5)CC[C@]4(C)[C@H]3CC[C@]12C (stereo partly specified)	> 50 µM	–
C/C=C1/[C@H](O)C[C@H]2[C@@H]3CCC4C[C@@H](N(C)C)CC[C@]4(C)[C@H]3CC[C@]12C (stereo partly specified)	–	IC50 ([1]; mda-mb-231): Nd(Toxic)
C/C=C1/CC[C@H]2[C@@H]3CCC4C[C@@H](NCc5ccc(C#N)cc5)CC[C@]4(C)[C@H]3CC[C@]12C (stereo partly specified)	26.7 µM	–
C/C=C1/[C@H](O)C[C@H]2[C@@H]3CCC4C[C@H](NCC)CC[C@]4(C)[C@H]3CC[C@]12C (stereo partly specified)	32.8 µM	–
C/C=C1/[C@H](O)C[C@H]2[C@@H]3CCC4C[C@H](N(C)C)CC[C@]4(C)[C@H]3CC[C@]12C (stereo partly specified)	> 50 µM	–
C/C=C1/[C@H](O)C[C@H]2[C@@H]3CCC4C[C@H](NC)CC[C@]4(C)[C@H]3CC[C@]12C (stereo partly specified)	–	IC50 ([1]; mda-mb-231): Nd(Toxic)
C/C=C1/[C@H](O)C[C@H]2[C@@H]3CCC4C[C@@H](NCc5ccc(C#N)cc5)CC[C@]4(C)[C@H]3CC[C@]12C (stereo partly specified)	15.9 µM	–
C/C=C1/[C@H](O)C[C@H]2[C@@H]3CCC4C[C@@H](N)CC[C@]4(C)[C@H]3CC[C@]12C (stereo partly specified)	–	IC50 ([1]; mda-mb-231): Nd(Toxic)
C/C=C1/CC[C@H]2[C@@H]3CCC4C[C@@H](N(C)C)CC[C@]4(C)[C@H]3CC[C@]12C (stereo partly specified)	5.51 µM	–
CC=C1CC[C@H]2[C@@H]3CCC4C[C@H](NC)CC[C@]4(C)[C@H]3CC[C@]12C (stereo partly specified)	> 50 µM	–
C/C=C1/CC[C@H]2[C@@H]3CCC4C[C@H](NCc5ccc(C#N)cc5)CC[C@]4(C)[C@H]3CC[C@]12C (stereo partly specified)	> 50 µM	–
C/C=C1/C(=O)C[C@H]2[C@@H]3CCC4C[C@H](N5CCCCC5)CC[C@]4(C)[C@H]3CC[C@]12C (stereo partly specified)	0.03 µM	Activity [5]: Non-Toxic; inhibition [6]: Dose-dependent effect; Activity [7]: Dose-dependent effect; Activity [8]: Active; Activity [9]: Non-Toxic; inhibition [10]: Dose-dependent effect; inhibition [11]: Dose-dependent effect; Activity [12]: Dose-dependent effect; inhibition [13]: Dose-dependent effect
C/C=C1/C(=O)C[C@H]2[C@@H]3CCC4C[C@@H](N(C)C)CC[C@]4(C)[C@H]3CC[C@]12C (stereo partly specified)	2.14 µM	–
O=c1cc(N2CCOCC2)oc2c(-c3ccccc3)cccc12 [LY-294002]	0.38 µM	–
C/C=C1/[C@H](O)C[C@H]2[C@@H]3CCC4C[C@H](N5CCCCC5)CC[C@]4(C)[C@H]3CC[C@]12C (stereo partly specified)	0.85 µM	–
C/C=C1/CC[C@H]2[C@@H]3CCC4C[C@H](N(C)C)CC[C@]4(C)[C@H]3CC[C@]12C (stereo partly specified)	7.45 µM	–
C/C=C1/C(=O)C[C@H]2[C@@H]3CCC4C[C@H](NC)CC[C@]4(C)[C@H]3CC[C@]12C (stereo partly specified)	–	IC50 ([1]; mda-mb-231): Nd(Toxic)
C/C=C1/C(=O)C[C@H]2[C@@H]3CCC4C[C@@H](N5CCCC5)CC[C@]4(C)[C@H]3CC[C@]12C (stereo partly specified)	–	IC50 ([1]; mda-mb-231): Nd(Toxic)
C/C=C1/C(=O)C[C@H]2[C@@H]3CCC4C[C@@H](NC)CC[C@]4(C)[C@H]3CC[C@]12C (stereo partly specified)	18.9 µM	–
C/C=C1/CC[C@H]2[C@@H]3CCC4C[C@@H](N5CCCC5)CC[C@]4(C)[C@H]3CC[C@]12C (stereo partly specified)	4.36 µM	–
C/C=C1/C(=O)C[C@H]2[C@@H]3CCC4C[C@@H](N5CCCCC5)CC[C@]4(C)[C@H]3CC[C@]12C (stereo partly specified)	> 50 µM	–
